Laboratory results as given in US10456407B2, “Combination therapy for treating cancer” (Epizyme, Inc., priority 2015, dated 2019).

Test system: WSU-DLCL2 cells
Assay: RT2 Glucocorticoid signaling PCR array, WSU-DLCL2 (WSU) cell line (Table 4c)
Type: cell-based

`CCN(c1cc(-c2ccc(CN3CCOCC3)cc2)cc(C(=O)NCc2c(C)cc(C)[nH]c2=O)c1C)C1CCOCC1` [Compound 44] was tested, and the “Ct Values, ACTB” value (gene ACTB) was 15.450, the “ΔCT (B2M), ACTB” value (gene ACTB) was −4.235 and the “Ct Values, ADARB1” value (gene ADARB1) was 25.386. For the same molecule, the “ΔCT (B2M), ADARB1” value (gene ADARB1) was 5.701, the “ΔΔCT, ADARB1” value (gene ADARB1, compared to DMSO) was −1.165 and the “Ct Values, AFF1” value (gene AFF1) was 27.925. The “ΔCT (B2M), AFF1” value (gene AFF1) was 8.240, the “ΔΔCT, AFF1” value (gene AFF1, compared to DMSO) was −0.413 and the “Ct Values, AK2” value (gene AK2) was 21.365. The “ΔCT (B2M), AK2” value (gene AK2) was 1.680, the “ΔΔCT, AK2” value (gene AK2, compared to DMSO) was 0.486 and the “Ct Values, AMPD3” value (gene AMPD3) was 27.162. For the same molecule, the “ΔCT (B2M), AMPD3” value (gene AMPD3) was 7.477, the “ΔΔCT, AMPD3” value (gene AMPD3, compared to DMSO) was −1.540 and the “Ct Values, ANGPTL4” value (gene ANGPTL4) was 30.487. The “ΔCT (B2M), ANGPTL4” value (gene ANGPTL4) was 10.802, the “ΔΔCT, ANGPTL4” value (gene ANGPTL4, compared to DMSO) was −1.192 and the “Ct Values, ANXA4” value (gene ANXA4) was 24.659. For the same molecule, the “ΔCT (B2M), ANXA4” value (gene ANXA4) was 4.974, the “ΔΔCT, ANXA4” value (gene ANXA4, compared to DMSO) was −3.312 and the “Ct Values, AQP1” value (gene AQP1) was 33.645. The “ΔCT (B2M), AQP1” value (gene AQP1) was 13.960, the “Ct Values, ARID68” value (gene ARID68) was 26.126 and the “ΔCT (B2M), ARID68” value (gene ARID68) was 6.441. The “ΔΔCT, ARID68” value (gene ARID68, compared to DMSO) was −0.353, the “Ct Values, ASPH” value (gene ASPH) was 22.415 and the “ΔΔCT, ASPH” value (gene ASPH, compared to DMSO) was −0.105. The “Ct Values, ATF4” value (gene ATF4) was 20.470, the “ΔCT (B2M), ATF4” value (gene ATF4) was 0.785 and the “ΔΔCT, ATF4” value (gene ATF4, compared to DMSO) was 0.361. For the same molecule, the “Ct Values, B2M” value (gene B2M (normaliser)) was 19.685, the “ΔCT (B2M), B2M” value (gene B2M (normaliser)) was 0.000 and the “Ct Values, BCL6” value (gene BCL6) was 20.795. The “ΔCT (B2M), BCL6” value (gene BCL6) was 1.110, the “ΔΔCT, BCL6” value (gene BCL6, compared to DMSO) was −0.394 and the “Ct Values, CEBPA” value (gene CEBPA) was 27.014. The “ΔCT (B2M), CEBPA” value (gene CEBPA) was 7.329, the “ΔΔCT, CEBPA” value (gene CEBPA, compared to DMSO) was −1.659 and the “Ct Values, CEBPB” value (gene CEBPB) was 26.770. The “ΔCT (B2M), CEBPB” value (gene CEBPB) was 7.085, the “ΔΔCT, CEBPB” value (gene CEBPB, compared to DMSO) was 1.269 and the “Ct Values, CREB1” value (gene CREB1) was 23.413. The “ΔCT (B2M), CREB1” value (gene CREB1) was 3.728, the “ΔΔCT, CREB1” value (gene CREB1, compared to DMSO) was 0.008 and the “Ct Values, CREB3” value (gene CREB3) was 25.459. The “ΔCT (B2M), CREB3” value (gene CREB3) was 5.774, the “ΔΔCT, CREB3” value (gene CREB3, compared to DMSO) was −0.085 and the “Ct Values, CREB3L4” value (gene CREB3L4) was 24.392. The “ΔCT (B2M), CREB3L4” value (gene CREB3L4) was 4.707, the “ΔΔCT, CREB3L4” value (gene CREB3L4, compared to DMSO) was −0.915 and the “Ct Values, CYB561” value (gene CYB561) was 31.478. For the same molecule, the “ΔCT (B2M), CYB561” value (gene CYB561) was 11.793, the “ΔΔCT, CYB561” value (gene CYB561, compared to DMSO) was −5.631 and the “Ct Values, DDIT4” value (gene DDIT4) was 24.404. For the same molecule, the “ΔCT (B2M), DDIT4” value (gene DDIT4) was 4.719, the “ΔΔCT, DDIT4” value (gene DDIT4, compared to DMSO) was −0.060 and the “Ct Values, DUSP1” value (gene DUSP1) was 27.284. The “ΔCT (B2M), DUSP1” value (gene DUSP1) was 7.599, the “ΔΔCT, DUSP1” value (gene DUSP1, compared to DMSO) was 1.370 and the “Ct Values, EDN1” value (gene EDN1) was 26.349. The “ΔCT (B2M), EDN1” value (gene EDN1) was 6.664, the “Ct Values, EHD3” value (gene EHD3) was 24.270 and the “ΔCT (B2M), EHD3” value (gene EHD3) was 4.585. The “ΔΔCT, EHD3” value (gene EHD3, compared to DMSO) was −5.639, the “Ct Values, ERRFI1” value (gene ERRFI1) was 32.771 and the “ΔCT (B2M), ERRFI1” value (gene ERRFI1) was 13.086. The “Ct Values, FK8PS” value (gene FK8PS) was 23.267, the “ΔCT (B2M), FK8PS” value (gene FK8PS) was 3.582 and the “ΔΔCT, FK8PS” value (gene FK8PS, compared to DMSO) was 0.159. The “Ct Values, FOSL2” value (gene FOSL2) was 34.140, the “ΔCT (B2M), FOSL2” value (gene FOSL2) was 14.455 and the “ΔΔCT, FOSL2” value (gene FOSL2, compared to DMSO) was 2.796. For the same molecule, the “Ct Values, GAPDH” value (gene GAPDH) was 17.275, the “ΔCT (B2M), GAPDH” value (gene GAPDH) was −2.410 and the “Ct Values, GDPD1” value (gene GDPD1) was 27.494. For the same molecule, the “ΔCT (B2M), GDPD1” value (gene GDPD1) was 7.809, the “ΔΔCT, GDPD1” value (gene GDPD1, compared to DMSO) was −1.112 and the “Ct Values, GHRHR” value (gene GHRHR) was 39.957. For the same molecule, the “ΔCT (B2M), GHRHR” value (gene GHRHR) was 20.272, the “ΔΔCT, GHRHR” value (gene GHRHR, compared to DMSO) was 5.086 and the “Ct Values, GLUL” value (gene GLUL) was 28.395. The “ΔCT (B2M), GLUL” value (gene GLUL) was 8.710, the “Ct Values, GOT1” value (gene GOT1) was 23.827 and the “ΔCT (B2M), GOT1” value (gene GOT1) was 4.142. The “ΔΔCT, GOT1” value (gene GOT1, compared to DMSO) was 0.708, the “Ct Values, H6PD” value (gene H6PD) was 25.976 and the “ΔCT (B2M), H6PD” value (gene H6PD) was 6.291. For the same molecule, the “ΔΔCT, H6PD” value (gene H6PD, compared to DMSO) was −0.619, the “Ct Values, HNRPLL” value (gene HNRPLL) was 24.170 and the “ΔCT (B2M), HNRPLL” value (gene HNRPLL) was 4.485. The “ΔΔCT, HNRPLL” value (gene HNRPLL, compared to DMSO) was −0.037, the “Ct Values, HPRT1” value (gene HPRT1) was 22.793 and the “ΔCT (B2M), HPRT1” value (gene HPRT1) was 3.108. For the same molecule, the “Ct Values, IL1RN” value (gene IL1RN) was 28.388, the “ΔCT (B2M), IL1RN” value (gene IL1RN) was 8.703 and the “Ct Values, IL6R” value (gene IL6R) was 33.814. For the same molecule, the “ΔCT (B2M), IL6R” value (gene IL6R) was 14.129, the “Ct Values, IL10” value (gene IL10) was 34.229 and the “ΔCT (B2M), IL10” value (gene IL10) was 14.544. The “Ct Values, KLF9” value (gene KLF9) was 28.881, the “ΔCT (B2M), KLF9” value (gene KLF9) was 9.196 and the “ΔΔCT, KLF9” value (gene KLF9, compared to DMSO) was −2.195. For the same molecule, the “Ct Values, KLF13” value (gene KLF13) was 23.800, the “ΔCT (B2M), KLF13” value (gene KLF13) was 4.115 and the “ΔΔCT, KLF13” value (gene KLF13, compared to DMSO) was −0.974. For the same molecule, the “Ct Values, LOX” value (gene LOX) was 34.399, the “ΔCT (B2M), LOX” value (gene LOX) was 14.714 and the “ΔΔCT, LOX” value (gene LOX, compared to DMSO) was −0.102.
